Assay results published in ChEMBL document CHEMBL3860050, “Triterpenoids from Momordica balsamina: Reversal of ABCB1-mediated multidrug resistance” (Bioorg Med Chem, 2016).

How the values were obtained:
[1] = target: T1, ATP-dependent translocase ABCB1 (Homo sapiens, UniProt P08183); experiment: Inhibition of MDR1-mediated efflux-pump activity in mouse L5178Y cells expressing human MDR1 assessed as forward scattered light at 20 uM preincubated for 10 mins followed by rhodamine-123 addition measured after 20 mins by flow cytometry (reference value: 455.7 to 509.9); assay type: cell-based
[2] = target: T1, ATP-dependent translocase ABCB1; experiment: Inhibition of MDR1-mediated efflux-pump activity in mouse L5178Y cells expressing human MDR1 assessed as forward scattered light at 2 uM preincubated for 10 mins followed by rhodamine-123 addition measured after 20 mins by flow cytometry (reference value: 455.7 to 509.9); assay type: cell-based
[3] = Antiproliferative activity against mouse L5178Y cells expressing human MDR1 measured after 72 hrs by MTT assay; assay type: functional, cell-based
[4] = Antiproliferative activity against mouse L5178Y cells measured after 72 hrs by MTT assay; assay type: functional, cell-based
[5] = target: T1, ATP-dependent translocase ABCB1; experiment: Inhibition of MDR1-mediated efflux-pump activity in mouse L5178Y cells expressing human MDR1 assessed as side scattered light at 2 uM preincubated for 10 mins followed by rhodamine-123 addition measured after 20 mins by flow cytometry (reference value: 194.6 to 286.4); assay type: cell-based
[6] = target: T1, ATP-dependent translocase ABCB1; experiment: Inhibition of MDR1-mediated efflux-pump activity in mouse L5178Y cells expressing human MDR1 assessed as side scattered light at 20 uM preincubated for 10 mins followed by rhodamine-123 addition measured after 20 mins by flow cytometry (reference value: 194.6 to 286.4); assay type: cell-based
[7] = target: T1, ATP-dependent translocase ABCB1; experiment: Inhibition of MDR1-mediated efflux-pump activity in mouse L5178Y cells expressing human MDR1 assessed as mean fluorescence intensity at 2 uM preincubated for 10 mins followed by rhodamine-123 addition measured after 20 mins by flow cytometry (reference value: 7.1 to 18.6); assay type: cell-based
[8] = target: T1, ATP-dependent translocase ABCB1; experiment: Inhibition of MDR1-mediated efflux-pump activity in mouse L5178Y cells expressing human MDR1 assessed as mean fluorescence intensity at 20 uM preincubated for 10 mins followed by rhodamine-123 addition measured after 20 mins by flow cytometry (reference value: 7.1 to 18.6); assay type: cell-based
[9] = target: T1, ATP-dependent translocase ABCB1; experiment: Inhibition of MDR1-mediated efflux-pump activity in mouse L5178Y cells expressing human MDR1 assessed as fluorescence activity ratio at 2 uM preincubated for 10 mins followed by rhodamine-123 addition measured after 20 mins by flow cytometry; assay type: cell-based
[10] = target: T1, ATP-dependent translocase ABCB1; experiment: Inhibition of MDR1-mediated efflux-pump activity in mouse L5178Y cells expressing human MDR1 assessed as fluorescence activity ratio at 20 uM preincubated for 10 mins followed by rhodamine-123 addition measured after 20 mins by flow cytometry; assay type: cell-based
[11] = target: T1, ATP-dependent translocase ABCB1; experiment: Inhibition of MDR1 in mouse L5178Y cells expressing human MDR1 assessed as doxorubicin-induced antiproliferative activity by measuring combination index at 5.7:1 compound to doxorubicin ratio measured after 48 hrs by MTT assay; assay type: cell-based
[12] = target: T1, ATP-dependent translocase ABCB1; experiment: Inhibition of MDR1 in mouse L5178Y cells expressing human MDR1 assessed as doxorubicin-induced antiproliferative activity by measuring combination index at 1.4:1 compound to doxorubicin ratio measured after 48 hrs by MTT assay; assay type: cell-based
[13] = target: T1, ATP-dependent translocase ABCB1; experiment: Inhibition of MDR1 in mouse L5178Y cells expressing human MDR1 assessed as doxorubicin-induced antiproliferative activity by measuring combination index at 11.3:1 compound to doxorubicin ratio measured after 48 hrs by MTT assay; assay type: cell-based

T1 sequence (P08183 whole entry): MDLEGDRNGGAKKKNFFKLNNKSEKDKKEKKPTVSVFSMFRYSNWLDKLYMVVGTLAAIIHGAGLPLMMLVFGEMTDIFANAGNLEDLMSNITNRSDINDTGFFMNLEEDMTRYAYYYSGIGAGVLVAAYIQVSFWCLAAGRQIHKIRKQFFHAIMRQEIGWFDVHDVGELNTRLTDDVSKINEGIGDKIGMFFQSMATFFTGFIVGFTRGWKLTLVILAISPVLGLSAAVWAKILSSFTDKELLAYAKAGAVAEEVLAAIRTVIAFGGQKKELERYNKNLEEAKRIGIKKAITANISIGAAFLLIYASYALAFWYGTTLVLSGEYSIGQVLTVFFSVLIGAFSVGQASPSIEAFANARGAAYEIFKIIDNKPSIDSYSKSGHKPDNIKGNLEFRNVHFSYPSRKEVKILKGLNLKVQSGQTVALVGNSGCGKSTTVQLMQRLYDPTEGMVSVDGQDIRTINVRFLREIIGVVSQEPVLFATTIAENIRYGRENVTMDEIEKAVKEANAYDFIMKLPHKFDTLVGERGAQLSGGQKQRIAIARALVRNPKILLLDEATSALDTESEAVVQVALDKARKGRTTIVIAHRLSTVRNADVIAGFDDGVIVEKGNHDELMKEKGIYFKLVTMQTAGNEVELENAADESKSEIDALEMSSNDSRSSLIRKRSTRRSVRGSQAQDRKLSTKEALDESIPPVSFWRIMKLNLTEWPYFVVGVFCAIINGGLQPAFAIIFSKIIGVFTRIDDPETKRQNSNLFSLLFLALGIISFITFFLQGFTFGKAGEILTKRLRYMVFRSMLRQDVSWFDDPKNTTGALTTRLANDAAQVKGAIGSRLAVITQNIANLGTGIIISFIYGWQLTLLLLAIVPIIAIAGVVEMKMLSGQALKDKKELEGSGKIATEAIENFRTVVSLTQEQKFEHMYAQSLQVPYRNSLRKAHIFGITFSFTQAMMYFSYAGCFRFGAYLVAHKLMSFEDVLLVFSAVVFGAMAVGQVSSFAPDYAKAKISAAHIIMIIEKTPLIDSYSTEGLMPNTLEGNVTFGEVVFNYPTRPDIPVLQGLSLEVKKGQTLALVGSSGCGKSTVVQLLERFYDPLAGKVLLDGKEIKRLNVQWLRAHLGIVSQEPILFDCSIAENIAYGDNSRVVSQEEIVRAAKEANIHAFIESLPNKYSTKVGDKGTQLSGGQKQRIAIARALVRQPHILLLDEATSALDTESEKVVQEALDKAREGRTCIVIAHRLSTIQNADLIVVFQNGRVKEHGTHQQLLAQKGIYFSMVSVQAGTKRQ

Row | SMILES | Activity [1] | Activity [2] | IC50 [3] [µM] | IC50 [4] [µM] | Activity [5] | Activity [6] | Flu intensity [7] | Flu intensity [8] | Ratio [9] | Ratio [10] | CI [11] | CI [12] | CI [13]
1 | CC(C)=C[C@H](O)C[C@@H](C)[C@H]1CC[C@@]2(C)[C@@H]3C(=O)C=C4[C@@H](CC[C@H](O)C4(C)C)[C@]3(C)CC[C@]12C [BALSAMINOL E] | 593 | 582.7 | 55.2 | 41.3 | 243.4 | 234.5 | 20.8 | 663.1 | 2 | 64.8 | 0.721 | – | –
2 | CO[C@H]1C=C2[C@@H](CC[C@H](O)[C@]2(C)CO)[C@]2(C)CC[C@]3(C)[C@@H]([C@H](C)C[C@@H](O)C=C(C)C)CC[C@@]3(C)[C@H]12 [BALSAMINOL B] | 461.8 | 439.5 | 31 | 7.7 | 258.8 | 260.7 | 95.7 | 899.1 | 7.3 | 68.7 | – | 0.378 | –
3 | CO[C@H]1C=C2[C@@H](CC[C@H](O)C2(C)C)[C@]2(C)C[C@@H](O)[C@]3(C)[C@@H]([C@H](C)C[C@@H](O)C=C(C)C)CC[C@@]3(C)[C@H]12 [CUCURBALSAMINOL C] | 564.3 | 568.5 | 34.6 | 19.5 | 241.8 | 237.6 | 31.6 | 202.8 | 3.1 | 19.8 | 0.416 | – | –
4 | CO[C@H]1C=C2[C@@H](CC[C@H](O)C2(C)C)[C@]2(C)CC[C@]3(C)[C@@H]([C@H](C)C[C@H](C=C(C)C)O[C@@H]4O[C@H](CO)[C@@H](O)[C@H](O)[C@H]4O)CC[C@@]3(C)[C@H]12 | 457.3 | 446.8 | 32.8 | 3.5 | 266.8 | 269.2 | 12.4 | 643.1 | 1 | 49.1 | 0.956 | – | –
5 | C[C@H](C/C=C/C(C)(C)O)[C@H]1CC[C@@]2(C)[C@@H]3[C@@H](O)C=C4[C@@H](CC[C@H](O)C4(C)C)[C@]3(C)CC[C@]12C | 395.2 | 570.5 | 27.4 | 18.7 | 249 | 243.9 | 73.1 | 368.4 | 7.1 | 36 | 0.71 | – | –
6 | CC(C)=C[C@H](O)C[C@@H](C)[C@H]1CC[C@@]2(C)[C@@H]3C=C[C@@]45OC[C@]3(CC[C@]12C)[C@@H]4CC[C@H](O)C5(C)C [KARAVILAGENIN E] | 474 | 568.8 | 45.2 | 21.3 | 234.2 | 242 | 38.4 | 743.8 | 3.8 | 72.6 | 0.437 | – | –
7 | CO[C@H]1C=C2[C@@H](CC[C@H](OC(=O)c3ccccc3)C2(C)C)[C@]2(C)CC[C@]3(C)[C@@H]([C@H](C)C/C=C/C(C)(C)O)CC[C@@]3(C)[C@H]12 | 444.8 | 454.2 | 130 | 108 | 233.1 | 235.1 | 17.9 | 140 | 1 | 7.8 | – | – | –
8 | CO[C@H]1C=C2[C@@H](CC[C@H](O)C2(C)C)[C@]2(C)C[C@@H](O)[C@]3(C)[C@@H]([C@H](C)C/C=C/C(C)(C)O)CC[C@@]3(C)[C@H]12 | 585 | 568.6 | 46.3 | 44.4 | 249.6 | 235.8 | 27.2 | 391.6 | 2.7 | 38.2 | – | 0.393 | –
9 | CC(C)=C[C@H](O)C[C@@H](C)[C@H]1CC[C@@]2(C)[C@@H]3[C@@H](O)C=C4[C@@H](CC[C@H](O)[C@]4(C)CO)[C@]3(C)CC[C@]12C [BALSAMINOL A] | 454.5 | 432.9 | 12.6 | 7.2 | 259 | 260 | 20.1 | 766.1 | 1.5 | 47.6 | – | – | 0.503
10 | CC(C)=CC(=O)C[C@@H](C)[C@H]1CC[C@@]2(C)[C@@H]3C(=O)C=C4[C@@H](CC[C@H](O)[C@]4(C)CO)[C@]3(C)CC[C@]12C [BALSAMINOL C] | 502.2 | 502.3 | 42.6 | 19 | 205.4 | 195.7 | 22.3 | 1537.8 | 2.9 | 198.9 | 0.268 | – | –
11 | CC(=O)O[C@H]1C=C2[C@@H](CC[C@H](OC(C)=O)C2(C)C)[C@]2(C)CC[C@]3(C)[C@@H]([C@H](C)C[C@H](C=C(C)C)OC(C)=O)CC[C@@]3(C)[C@H]12 [TRIACETYLBALSAMINOL F] | 533.5 | 541.9 | > 133 | > 133 | 182.1 | 179.9 | 20 | 100.6 | 3 | 15 | – | – | –
12 | CO[C@H]1C=C2[C@@H](CC[C@H](OC(=O)/C=C/c3ccccc3)C2(C)C)[C@]2(C)CC[C@]3(C)[C@@H]([C@H](C)C[C@H](C=C(C)C)OC(=O)/C=C/c4ccccc4)CC[C@@]3(C)[C@H]12 [KARAVOATE P] | 503 | 528 | > 133 | > 133 | 191.2 | 177 | 6.9 | 18.1 | 1 | 2.7 | – | – | –
13 | CC(=O)C[C@@H](C)[C@H]1CC[C@@]2(C)[C@@H]3C(=O)C=C4[C@@H](CC[C@H](O)[C@]4(C)CO)[C@]3(C)CC[C@]12C [BALSAMINOL D] | 434.2 | 439.9 | 67.1 | 27.8 | 254.3 | 256.5 | 10.3 | 25.9 | 1 | 1.9 | – | – | –
